This note sets out measurements from patent US20120245137A1 (Zalicus Pharmaceuticals Ltd., priority 2009, published 2012).

Common to all, as to assay type: cell-based
Experiment [1] addresses human α1G T-type channels (Homo sapiens, UniProt O43497). As to the kind of experiment: T-type calcium channel block, whole cell patch clamp, α1G. Particulars: HEK cells stably expressing human α1G; mainly non-inactivated protocol; values above 10,000 nM represented as 10000. In short, it runs like this: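 Whole-cell voltage clamp on stably transfected HEK 293 lines carrying human α1H or α1G. Two voltage protocols used: non-inactivated pre-pulse for resting block, inactivated for voltage-dependent block; test agents perfused locally in external solution (0.1-0.01% DMSO) following ~10 min rest.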
In general terms: Patch clamp records ionic current or voltage across a cell membrane.

Experiment [2] concerns the target human α1H T-type channels (Homo sapiens, UniProt O95180). As to the kind of experiment: T-type calcium channel block, whole cell patch clamp, α1H. Particulars: HEK cells stably expressing human α1H; mainly non-inactivated protocol; values above 10,000 nM represented as 10000. As to the method:
T-type calcium channel blocking activity was assayed in human embryonic kidneycells, HEK 293 (Invitrogen), stably transfected with the T-type calcium channel subunits. Briefly, cells were cultured in Dulbecco's modified eagle medium (DMEM) supplemented with 10% fetal bovine serum, 200 U/ml penicillin, and 0.2 mg/mL streptomycin at 37° C. with 5% CO2. At 85% confluency, cells were split with 0.25% trypsin/1 mM EDTA and plated at 10% confluency on glass coverslips. At 12 hours, the medium was replaced, and the cells stably transfected using a standard calcium phosphate protocol and the appropriate calcium channel cDNA's. Fresh DMEM was supplied, and the cells transferred to 28° C./5% CO2.
Standard patch-clamp techniques were employed to identify blockers of T-type currents. Briefly, previously described HEK cell lines stably expressing human α1G, α1H, and α1I T-type channels were used for all the recordings (passage #: 4-20, 37° C., 5% CO2). Whole cell patch clamp experiments were performed using an Axopatch 200B amplifier (Axon Instruments, Burlingame, Calif.) linked to a personal computer equipped with pCLAMP software. Data were analyzed using Clampfit (Axon Instruments) and SigmaPlot 4.0 (Jandel Scientific). To obtain T-type currents, plastic dishes containing semi-confluent cells were positioned on the stage of a ZEISS AXIOVERT S100 microscope after replacing the culture medium with external solution (Table 2). Whole-cell patches were obtained using pipettes (borosilicate glass with filament, O.D.: 1.5 mm, I.D.: 0.86 mm, 10 cm length), fabricated on a SUTTER P-97 puller with resistance values of ˜5 MΩ (Table 3).
T-type currents were reliably obtained by using two voltage protocols: • “non-inactivating,” and • “inactivation.”
Test compounds were dissolved in external solution, 0.1-0.01% DMSO. After ˜10 minutes rest, they were applied by gravity close to the cell using a WPI microfil tubing. The “non-inactivated” pre-pulse was used to examine the resting block of a compound. The “inactivated” protocol was employed to study voltage-dependent block.

For experiment [3], the target named is N-type calcium channel subunits (α1B, α2δ, and β3a) (Homo sapiens, UniProt Q00975). As to the kind of experiment: Block of Cav2.2 channel, whole cell voltage clamp, manual and PatchXpress. Particulars: Table 5; table follows Assay Example 3 (whole cell voltage clamp / PatchXpress); assay not given. The essentials: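 Percent block taken as current amplitude ratio with versus without compound, applied in rising doses; IC50 fitted where one cell received multiple doses. Protocol: 50 ms pulses to +20 mV at 0.067 Hz from […] or −90 mV holding; P/n leak subtraction, no junction-potential correction; manual and PatchXpress recordings.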

Some results are limits rather than exact numbers.

Sequence of human α1H T-type channels (O95180 whole entry): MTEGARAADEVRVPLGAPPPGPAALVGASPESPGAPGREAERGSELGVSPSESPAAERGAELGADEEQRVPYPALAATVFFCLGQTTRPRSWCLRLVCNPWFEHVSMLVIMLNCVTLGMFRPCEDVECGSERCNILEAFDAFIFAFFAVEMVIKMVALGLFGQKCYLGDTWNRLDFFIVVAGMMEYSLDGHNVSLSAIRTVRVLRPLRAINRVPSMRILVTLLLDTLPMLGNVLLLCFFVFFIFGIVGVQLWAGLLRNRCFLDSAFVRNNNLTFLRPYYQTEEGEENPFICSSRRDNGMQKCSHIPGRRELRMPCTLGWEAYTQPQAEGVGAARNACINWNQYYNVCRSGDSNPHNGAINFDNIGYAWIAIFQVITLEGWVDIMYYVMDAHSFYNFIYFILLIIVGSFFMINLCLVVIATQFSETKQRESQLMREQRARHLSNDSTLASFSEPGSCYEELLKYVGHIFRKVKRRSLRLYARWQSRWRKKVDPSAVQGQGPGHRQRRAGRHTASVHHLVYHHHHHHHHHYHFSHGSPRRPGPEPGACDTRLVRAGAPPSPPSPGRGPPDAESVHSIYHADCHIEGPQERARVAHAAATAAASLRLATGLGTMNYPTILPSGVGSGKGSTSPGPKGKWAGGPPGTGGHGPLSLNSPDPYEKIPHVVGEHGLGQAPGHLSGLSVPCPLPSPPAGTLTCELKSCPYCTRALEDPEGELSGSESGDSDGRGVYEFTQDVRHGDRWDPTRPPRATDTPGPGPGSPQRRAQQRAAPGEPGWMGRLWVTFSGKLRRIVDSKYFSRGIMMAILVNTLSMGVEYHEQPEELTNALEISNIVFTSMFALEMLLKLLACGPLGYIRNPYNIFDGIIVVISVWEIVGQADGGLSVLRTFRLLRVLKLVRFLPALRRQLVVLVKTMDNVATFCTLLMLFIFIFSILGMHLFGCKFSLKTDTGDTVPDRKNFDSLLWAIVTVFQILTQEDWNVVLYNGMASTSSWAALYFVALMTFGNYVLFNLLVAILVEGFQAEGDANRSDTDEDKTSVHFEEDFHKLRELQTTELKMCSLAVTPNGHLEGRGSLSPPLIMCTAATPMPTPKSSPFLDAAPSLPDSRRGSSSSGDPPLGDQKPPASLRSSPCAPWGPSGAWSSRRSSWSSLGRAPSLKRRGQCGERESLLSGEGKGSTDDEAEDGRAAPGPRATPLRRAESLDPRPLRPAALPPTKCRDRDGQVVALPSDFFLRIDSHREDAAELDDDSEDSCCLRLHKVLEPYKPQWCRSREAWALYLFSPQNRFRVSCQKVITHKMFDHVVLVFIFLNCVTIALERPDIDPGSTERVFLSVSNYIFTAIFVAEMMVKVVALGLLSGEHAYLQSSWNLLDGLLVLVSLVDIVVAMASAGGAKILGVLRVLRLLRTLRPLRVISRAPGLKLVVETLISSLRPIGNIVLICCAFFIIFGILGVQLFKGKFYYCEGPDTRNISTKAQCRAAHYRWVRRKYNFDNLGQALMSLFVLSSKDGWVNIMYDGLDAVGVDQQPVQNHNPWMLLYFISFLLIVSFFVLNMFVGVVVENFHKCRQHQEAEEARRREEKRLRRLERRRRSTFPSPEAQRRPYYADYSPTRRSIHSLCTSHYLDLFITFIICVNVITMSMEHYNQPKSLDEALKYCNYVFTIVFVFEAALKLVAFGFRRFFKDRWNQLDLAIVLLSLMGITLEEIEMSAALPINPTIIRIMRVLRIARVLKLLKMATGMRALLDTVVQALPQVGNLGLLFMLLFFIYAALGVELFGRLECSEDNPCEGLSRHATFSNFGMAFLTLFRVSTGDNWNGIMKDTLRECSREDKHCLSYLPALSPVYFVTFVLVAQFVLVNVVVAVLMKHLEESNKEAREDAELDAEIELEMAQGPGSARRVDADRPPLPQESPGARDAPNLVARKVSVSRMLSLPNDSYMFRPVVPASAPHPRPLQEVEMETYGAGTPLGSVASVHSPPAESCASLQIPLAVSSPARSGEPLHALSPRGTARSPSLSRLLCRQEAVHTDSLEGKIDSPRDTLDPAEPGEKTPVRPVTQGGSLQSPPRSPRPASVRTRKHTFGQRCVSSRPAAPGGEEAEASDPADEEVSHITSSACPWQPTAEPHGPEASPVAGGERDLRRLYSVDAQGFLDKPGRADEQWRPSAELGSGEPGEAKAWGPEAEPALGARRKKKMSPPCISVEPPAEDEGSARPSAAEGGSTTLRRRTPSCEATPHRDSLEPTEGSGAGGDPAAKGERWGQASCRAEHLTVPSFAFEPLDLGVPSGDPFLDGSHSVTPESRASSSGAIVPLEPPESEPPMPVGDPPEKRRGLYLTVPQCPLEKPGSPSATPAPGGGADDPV
Sequence of human α1G T-type channels (O43497 whole entry, the tested form may be a part): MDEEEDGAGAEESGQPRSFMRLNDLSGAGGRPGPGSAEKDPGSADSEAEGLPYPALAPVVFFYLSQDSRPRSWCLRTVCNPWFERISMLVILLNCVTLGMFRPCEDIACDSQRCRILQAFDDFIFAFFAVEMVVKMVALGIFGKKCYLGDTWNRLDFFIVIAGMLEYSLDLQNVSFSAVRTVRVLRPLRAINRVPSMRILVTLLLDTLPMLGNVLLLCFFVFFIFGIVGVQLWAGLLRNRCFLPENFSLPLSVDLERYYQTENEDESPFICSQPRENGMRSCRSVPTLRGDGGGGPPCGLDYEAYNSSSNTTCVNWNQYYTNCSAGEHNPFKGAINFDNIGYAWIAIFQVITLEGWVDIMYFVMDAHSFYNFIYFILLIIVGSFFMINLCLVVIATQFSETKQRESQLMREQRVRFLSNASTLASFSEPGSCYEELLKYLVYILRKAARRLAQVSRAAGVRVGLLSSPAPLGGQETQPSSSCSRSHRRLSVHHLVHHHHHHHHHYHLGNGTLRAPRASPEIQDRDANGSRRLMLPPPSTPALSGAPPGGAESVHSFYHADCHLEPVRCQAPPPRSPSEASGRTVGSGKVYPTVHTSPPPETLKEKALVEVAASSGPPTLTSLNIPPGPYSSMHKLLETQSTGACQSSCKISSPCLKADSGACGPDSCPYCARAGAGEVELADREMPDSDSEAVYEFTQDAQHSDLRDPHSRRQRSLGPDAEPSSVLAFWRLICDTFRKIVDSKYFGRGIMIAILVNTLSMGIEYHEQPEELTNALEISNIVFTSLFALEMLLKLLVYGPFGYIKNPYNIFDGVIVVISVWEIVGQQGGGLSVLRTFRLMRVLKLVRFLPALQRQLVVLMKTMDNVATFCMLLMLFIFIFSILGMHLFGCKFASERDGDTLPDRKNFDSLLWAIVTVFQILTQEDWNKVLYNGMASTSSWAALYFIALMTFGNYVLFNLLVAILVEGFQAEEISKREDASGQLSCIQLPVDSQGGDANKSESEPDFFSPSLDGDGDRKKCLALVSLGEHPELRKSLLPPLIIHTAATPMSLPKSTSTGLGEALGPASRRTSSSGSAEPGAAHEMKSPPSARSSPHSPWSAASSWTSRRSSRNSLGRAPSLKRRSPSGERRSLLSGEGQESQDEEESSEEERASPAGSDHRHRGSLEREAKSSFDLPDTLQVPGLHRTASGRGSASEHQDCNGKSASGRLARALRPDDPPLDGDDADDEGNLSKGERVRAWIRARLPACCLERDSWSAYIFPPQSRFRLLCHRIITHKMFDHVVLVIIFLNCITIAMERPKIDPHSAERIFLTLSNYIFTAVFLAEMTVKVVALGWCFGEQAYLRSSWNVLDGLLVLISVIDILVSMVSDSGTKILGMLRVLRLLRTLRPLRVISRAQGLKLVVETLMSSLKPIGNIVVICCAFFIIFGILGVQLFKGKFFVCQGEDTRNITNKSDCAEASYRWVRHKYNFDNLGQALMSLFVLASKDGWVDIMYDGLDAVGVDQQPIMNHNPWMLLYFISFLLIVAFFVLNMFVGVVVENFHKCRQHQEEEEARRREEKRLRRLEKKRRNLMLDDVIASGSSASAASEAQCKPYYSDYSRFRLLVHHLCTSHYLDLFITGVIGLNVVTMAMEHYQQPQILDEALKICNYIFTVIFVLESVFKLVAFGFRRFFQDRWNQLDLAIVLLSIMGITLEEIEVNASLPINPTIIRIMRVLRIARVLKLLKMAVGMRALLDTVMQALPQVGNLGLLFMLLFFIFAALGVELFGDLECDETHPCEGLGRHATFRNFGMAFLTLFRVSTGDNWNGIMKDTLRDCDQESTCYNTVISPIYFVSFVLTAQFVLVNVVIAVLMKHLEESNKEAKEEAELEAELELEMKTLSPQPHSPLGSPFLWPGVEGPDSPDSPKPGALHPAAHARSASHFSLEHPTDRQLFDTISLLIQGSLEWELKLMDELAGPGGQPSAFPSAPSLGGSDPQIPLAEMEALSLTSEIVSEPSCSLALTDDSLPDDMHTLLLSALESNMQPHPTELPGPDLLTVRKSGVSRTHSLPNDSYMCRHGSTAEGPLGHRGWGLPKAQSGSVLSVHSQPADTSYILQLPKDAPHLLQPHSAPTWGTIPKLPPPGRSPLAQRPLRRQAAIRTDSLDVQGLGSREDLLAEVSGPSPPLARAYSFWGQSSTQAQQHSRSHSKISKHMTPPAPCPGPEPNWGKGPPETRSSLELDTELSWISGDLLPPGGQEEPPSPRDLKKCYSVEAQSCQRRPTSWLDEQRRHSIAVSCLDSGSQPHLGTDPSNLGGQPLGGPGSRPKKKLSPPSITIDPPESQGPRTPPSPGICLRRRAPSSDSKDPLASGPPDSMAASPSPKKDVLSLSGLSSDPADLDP

With `CC(C)(CNS(=O)(=O)c1ccccc1C(F)(F)F)S(=O)(=O)c1cccc(C(F)(F)F)c1` [Compound 494, N-(2-methyl-2-(3-(trifluoromethyl)phenylsulfonyl)propyl)-2-(trifluoromethyl) benzenesulfonamide], the IC50 (commonly the concentration that inhibits the measured activity by half) in experiment [1] came out at 400 nM; in experiment [2] it was 3530 nM.
In the same order, the values of `CC(C)(CCS(=O)(=O)c1cc(Cl)cc(Cl)c1)S(=O)(=O)c1cccc(C(F)(F)F)c1` [Compound 461, 1,3-dichloro-5-(3-methyl-3-(3-(trifluoromethyl)phenylsulfonyl)butylsulfonyl)benzene] are 190 nM and greater than 10000 nM.
In the same order, the values of `CC(C)(CCNC(=O)c1ccc(F)cc1)S(=O)(=O)c1cccc(C(F)(F)F)c1` [Compound 468, 4-fluoro-N-(3-methyl-3-(3-(trifluoromethyl)phenylsulfonyl)butyl) benzamide] are 350 nM and 4860 nM.
In the same order, the values of `CC(C)(CNS(=O)(=O)c1ccc2c(c1)OCO2)S(=O)(=O)c1cccc(C(F)(F)F)c1` [Compound 500, N-(2-methyl-2-(3-(trifluoromethyl)phenylsulfonyl)propyl)benzo[d] [1,3]dioxole-5-sulfonamide] are 340 nM and 3110 nM.
As to `CC(C)(CNC(=O)c1ccc(Cl)cc1Cl)S(=O)(=O)c1cccc(C(F)(F)F)c1` [Compound 480, 2,4-dichloro-N-(2-methyl-2-(3-(trifluoromethyl)phenylsulfonyl)propyl) benzamide], the IC50 in experiment [1] worked out at 720 nM; in experiment [2] it was 5440 nM.
For the compound `CC(C)(C)C(=O)Nc1ccncc1C(=O)NCC(C)(C)S(=O)(=O)c1cccc(C(F)(F)F)c1` [Compound 477, N-(2-methyl-2-(3-(trifluoromethyl)phenylsulfonyl)propyl)-4-pivalamidonicotinamide], the IC50 in experiment [1] was 540 nM; in experiment [2], greater than 10000 nM.
Take `CC(C)(C(=O)Nc1ccc(Oc2ccc(F)cc2)cc1)S(=O)(=O)c1cccc(C(F)(F)F)c1` [Compound 488, N-(4-(4-fluorophenoxy)phenyl)-2-methyl-2-(3-(trifluoromethyl)phenylsulfonyl)propanamide]: the IC50 in experiment [1] amounted to 290 nM; in experiment [2], 2880 nM.
With `CC(C)(CNC(=O)c1ccc(Oc2ccc(F)cc2)cc1)S(=O)(=O)c1cccc(C(F)(F)F)c1` [Compound 521, 4-(4-fluorophenoxy)-N-(2-methyl-2-(3-(trifluoromethyl)phenylsulfonyl)propyl) benzamide], the figures for the IC50 in experiment [1] and in experiment [2] were 470 nM and 910 nM, respectively.
In the same order, the values of `CC(C)(C(=O)Nc1nc2cc(C(F)(F)F)ccc2[nH]1)S(=O)(=O)c1cccc(C(F)(F)F)c1` [Compound 458, 2-methyl-N-(5-(trifluoromethyl)-1H-benzo[d]imidazol-2-yl)-2-(3-(trifluoromethyl)phenylsulfonyl)propanamide] are 900 nM and 1920 nM.
For `CC(C)(C)Oc1ccc(CNC(=O)C(C)(C)S(=O)(=O)c2cccc(C(F)(F)F)c2)cc1` [Compound 502, N-(4-tert-butoxybenzyl)-2-methyl-2-(3-(trifluoromethyl)phenylsulfonyl)propanamide], the IC50 in experiment [1] turned out to be 360 nM; in experiment [2], 3060 nM.
As to `Cn1nc(C(F)(F)F)cc1C(=O)NCCC(C)(C)S(=O)(=O)c1cccc(C(F)(F)F)c1` [Compound 467, 1-methyl-N-(3-methyl-3-(3-(trifluoromethyl)phenylsulfonyl)butyl)-3-(trifluoromethyl)-1H-pyrazole-5-carboxamide], the IC50 in experiment [1] stood at 170 nM; in experiment [2], 1170 nM.
In the same order, the values of `Cc1cc(C(=O)N[C@H]2CC[C@H](CS(=O)(=O)c3cccc(C(F)(F)F)c3)CC2)c(C(F)(F)F)o1` [Compound 172, 5-methyl-2-(trifluoromethyl)-N-((1R,4R)-4-((3-(trifluoromethyl)phenylsulfonyl)methyl)cyclohexyl)furan-3-carboxamide] are greater than 10000 nM and 6730 nM.
On to `CN(CCc1ccc(F)cc1)C(=O)C(C)(C)S(=O)(=O)c1cccc(C(F)(F)F)c1` [Compound 452, N-(4-fluorophenethyl)-N,2-dimethyl-2-(3-(trifluoromethyl)phenylsulfonyl)propanamide], for which the IC50 in experiment [1] turned out to be 570 nM; in experiment [2] it was 9810 nM.
On to `CC(C)(CNC(=O)c1ccc(Cl)c(Cl)c1)S(=O)(=O)c1cccc(C(F)(F)F)c1` [Compound 479, 3,4-dichloro-N-(2-methyl-2-(3-(trifluoromethyl)phenylsulfonyl)propyl) benzamide], for which the IC50 in experiment [1] was determined as 900 nM; in experiment [2], 2090 nM.
Take `CN(CCC(C)(C)S(=O)(=O)c1cccc(C(F)(F)F)c1)C(=O)c1cn2ccc(C(F)(F)F)cc2n1` [Compound 514, N-methyl-N-(3-methyl-3-(3-(trifluoromethyl)phenylsulfonyl)butyl)-7-(trifluoromethyl)imidazo[1,2-a]pyridine-2-carboxamide]: the IC50 in experiment [1] is 840 nM; in experiment [2], greater than 10000 nM.
In the same order, the values of `CN(C(=O)CNCCC(C)(C)S(=O)(=O)c1cccc(C(F)(F)F)c1)C(C)(C)C` [Compound 473, N-tert-butyl-N-methyl-2-(3-methyl-3-(3-(trifluoromethyl)phenylsulfonyl)butylamino) acetamide] are 680 nM and 9280 nM.
As to `CC(C)(CN[C@H]1CC[C@@H](C(F)(F)F)CC1)S(=O)(=O)c1cccc(C(F)(F)F)c1` [Compound 519, (1S,4S)-N-(2-methyl-2-(3-(trifluoromethyl)phenylsulfonyl)propyl)-4-(trifluoromethyl) cyclohexanamine], the IC50 in experiment [1] came out at 550 nM; in experiment [2], 3280 nM.
In the same order, the values of `O=C(N[C@H]1CC[C@H](CS(=O)(=O)c2cccc(C(F)(F)F)c2)CC1)c1cc(C(F)(F)F)n[nH]1` [Compound 112, 3-(trifluoromethyl)-N-((lR,4R)-4-((3-(trifluoromethyI)phenylsulfonyl)methyl)cyclohexyl)-1H-pyrazole-5-carboxamide] are greater than 10000 nM and 8360 nM.
Consider `CC(C)(CCNC(=O)c1ccc(F)c(C(F)(F)F)c1)S(=O)(=O)c1cc(F)cc(C(F)(F)F)c1` [Compound 533, 4-fluoro-N-(3-(3-fluoro-5-(trifluoromethyl)phenylsulfonyl)-3-methylbutyl)-3-(trifluoromethyl)benzamide], for which the IC50 was found to be 350 nM in experiment [1] and 1080 nM in experiment [2].
With `CN(CCC(C)(C)S(=O)(=O)c1cccc(C(F)(F)F)c1)C(=O)c1ccc(F)c(C(F)(F)F)c1` [Compound 510, 4-fluoro-N-methyl-N-(3-methyl-3-(3-(trifluoromethyl)phenylsulfonyl)butyl)-3-(trifluoromethyl)benzamide], the IC50 turned out to be 170 nM in experiment [1] and 5870 nM in experiment [2].
For the compound `CC1(S(=O)(=O)c2cccc(C(F)(F)F)c2)CCC(NC(=O)c2ccc(C(F)(F)F)cn2)CC1` (stereo not drawn) [Compound 3, N-(4-methyl-4-(3-(trifluoromethyl)phenylsulfonyl)cyclohexyl)-5-(trifluoromethyl) picolinamide], the values for the IC50 in experiment [2] and in experiment [3] were greater than 10000 nM and 640 nM, respectively.
In the same order, the values of `CC1(NC(=O)c2cc(F)cc(Cl)c2)CCC(F)(S(=O)(=O)c2cccc(C(F)(F)F)c2)CC1` (stereo not drawn) [Compound 93, 3-chloro-5-fluoro-N-(4-fluoro-1-methyl-4-(3-(trifluoromethyl)phenylsulfonyl)cyclohexyl)benzamide] are greater than 10000 nM and 240 nM.
As to `O=C(N[C@H]1CC[C@@](F)(S(=O)(=O)c2cc(F)cc(C(F)(F)F)c2)CC1)c1cc(F)cc(Cl)c1` [Compound 326, 3-chloro-5-fluoro-N-((1S,4S)-4-fluoro-4-(3-fluoro-5-(trifluoromethyl)phenylsulfonyl)cyclohexyl) benzamide], the IC50 in experiment [2] turned out to be 1480 nM; in experiment [3], 330 nM.
In the case of `CC1(S(=O)(=O)c2cccc(C(F)(F)F)c2)CCC(NC(=O)CCC(F)(F)F)CC1` (stereo not drawn) [Compound 5, 4,4,4-trifluoro-N-(4-methyl-4-(3-(trifluoromethyl)phenylsulfonyl)cyclohexyl)butanamide], the figures for the IC50 in experiment [2] and in experiment [3] were greater than 10000 nM and 380 nM, respectively.
